This note sets out measurements from patent US20220298135A1, “5-HETEROARYL-PYRIDIN-2-AMINE COMPOUNDS AS NEUROPEPTIDE FF RECEPTOR ANTAGONISTS” (Domain Therapeutics, priority 2019, published 2022).

The target in data set [1] is T1, human NPFFR1 (hNPFFR1) receptor (Homo sapiens, UniProt Q9GZQ6).
T1 construct: expressed in transfected cells; host or cells: HEK-293 T cells, transient co-transfection with polyethylenimine
As to the kind of experiment: Human NPFFR1 evaluation using BRET biosensors (antagonist IC50). The conditions noted are these: hNPFFR1 transiently over-expressed in HEK-293 T cells; BRET signal; stimulation by EC80 RFRP-3. The class given is cell-based. The method, then:
Compounds of the present invention were tested successively for their agonist and antagonist activities on human NPFFR1 (hNPFFR1) receptor transiently over-expressed in HEK-293 T cells. Compounds exert agonist activity if, by themselves in absence of neuropeptide RFRP-3 (also named NPVF) they activate hNPFFR1; and they exert antagonist activity if they decrease the action of RFRP-3 on the receptor.
The assay used to measure compound activity is based on BRET (Bioluminescence Resonance Energy Transfer) biosensors and is designed to monitor the plasma membrane translocation of protein that interacts with specific Ga subunit. The specific effector (luciferase tagged: BRET donor) recruited at the membrane will be in close proximity to a plasma membrane anchor (GFP tagged: BRET acceptor) to induce a BRET signal. Biosensors are described in the patent application WO 2016/041093 A1 (Biosensors for monitoring biomolecule localization and trafficking in cells).
HEK-293 T cells are maintained in Dulbecco's Modified Eagle's Medium supplemented with 10% Foetal Calf Serum, 1% Penicillin/Streptomycin at 37° C./5% CO2.
Cells are co-transfected using polyethylenimine (25 kDa linear) with four DNA plasmids encoding: hNPFFR1, GαoB, a Gi family specific intracellular effector fused to luciferase (BRET donor), a plasma membrane effector fused to GFP (BRET acceptor). After transfection, cells are cultured for 48 h at 37° C./5% CO2.
Receptor activity is detected by changes in BRET signal.
On the day of the assay, cells are detached using trypsin 0.05%, resuspended in assay buffer (1.8 mM CaCl2, 1 mM MgCl2, 2.7 mM KCl, 137 mM NaCl, 0.4 mM NaH2PO4, 5.5 mM D-Glucose, 11.9 mM NaHCO3, 25 mM Hepes) and seeded in 384 well plate at a density of 20,000 cells per well. Then, plates are equilibrated 3.5 hours at 37° C. before adding compounds.
Compounds and luciferase substrate are added to the cells using an automated device (Freedom Evo®, Tecan) and BRET readings are collected on EnVision (PerkinElmer) with specific filters (410 nm BW 80 nm, 515 nm BW 30 nm).
Agonist and antagonist activities of compounds are consecutively evaluated on the same cell plate. Agonist activity is first measured after 10 minutes incubation with compound alone on the cells. Then, cells are stimulated by an EC80 RFRP-3 concentration and luminescence is recorded for additional 10 minutes. EC80 RFRP-3 concentration is the concentration giving 80% of the maximal RFRP-3 response. Agonist or antagonist activities are evaluated in comparison to basal signals evoked by assay buffer or EC80 RFRP-3 alone, respectively.
For IC50 determination, a dose-response test is performed using 20 concentrations (ranging over 6 logs) of each compound. Dose-response curves are fitted using the sigmoidal dose-response (variable slope) analysis in GraphPad Prism software (GraphPad Software) and IC50 of antagonist activity is calculated. Dose-response experiments are performed in duplicate, in two independent experiments.

Counter-ions that a name gives are not always drawn.

T1 sequence (Q9GZQ6 whole entry): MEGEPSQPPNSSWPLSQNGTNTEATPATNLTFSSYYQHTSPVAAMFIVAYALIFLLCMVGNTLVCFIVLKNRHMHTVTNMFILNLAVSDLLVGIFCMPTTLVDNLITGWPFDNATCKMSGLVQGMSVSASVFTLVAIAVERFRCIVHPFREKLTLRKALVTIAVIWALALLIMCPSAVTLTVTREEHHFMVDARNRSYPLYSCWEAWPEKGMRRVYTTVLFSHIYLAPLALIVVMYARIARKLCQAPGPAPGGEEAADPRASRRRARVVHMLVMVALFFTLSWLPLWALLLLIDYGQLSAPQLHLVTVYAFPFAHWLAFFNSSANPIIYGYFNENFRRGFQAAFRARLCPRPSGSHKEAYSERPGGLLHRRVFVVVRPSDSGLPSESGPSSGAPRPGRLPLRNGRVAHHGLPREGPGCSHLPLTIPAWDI

A word on the IC50: it is the concentration needed to halve the response being measured. A high value points to weaker potency. `CCc1nc(N)ccc1-c1cccc2ccc(-c3ccccc3)nc12` [Example 116, 6-ethyl-5-(2-phenylquinolin-8-yl)pyridin-2-amine] came in with an IC50 in data set [1] of less than 100 nM.
The melting point is the temperature, or range, at which the solid turns liquid. As for `CCCc1nc(N)ccc1-c1csc2ccccc12.Cl` [Example 7, 5-Benzo[b]thiophen-3-yl-6-propyl-pyridin-2-ylamine], the melting point fell in the range of 175 to 190 °C. This molecule yielded an IC50 in data set [1] of 100 to 1000 nM.
Take `CCc1nc(N)ccc1-c1c(F)cc(F)c2cc(F)cnc12.Cl` [Example 145, 6-ethyl-5-(3,5,7-trifluoroquinolin-8-yl)pyridin-2-amine]: the melting point fell in the range of 110 to 120 °C. In data set [1], this molecule had an IC50 of less than 100 nM.
For the molecule `Cl.Nc1ccc(-c2c(F)ccc3ccc(O)nc23)c(N)n1` [Example 62, 8-(2,6-diaminopyridin-3-yl)-7-fluoroquinolin-2-ol], the melting point lay within 210 to 230 °C. For the same molecule, the IC50 in data set [1] is less than 100 nM.
Regarding `CCc1nc(N)ccc1-c1ccccc1-c1ccc(N2CCCCC2)nc1.Cl` [Example 80, 6-ethyl-5-(2-(6-(piperidin-1-yl)pyridin-3-yl)phenyl)pyridin-2-amine], the melting point was 50 to 80 °C. The same molecule yielded an IC50 in data set [1] of 100 to 1000 nM.
`CCc1nc(N)ccc1-c1c(F)ccc2ccc(N(CC)C(C)C)nc12.Cl` gave a melting point of 214 to 229 °C.
`CCc1nc(N)ccc1-c1c(F)ccc2c1OCCC2.Cl` [Example 176, 6-ethyl-5-(7-fluorochroman-8-yl)pyridin-2-amine] yielded a melting point of 85 to 95 °C. The IC50 in data set [1] was less than 100 nM.
In the same order, the values of `Nc1ccc(-c2cnn3ccccc23)c(N)n1` [Example 19, 3-Pyrazolo[1,5-a]pyridin-3-ylpyridine-2,6-diamine] are 195 to 200 °C and greater than 1000 nM.
As for `CCc1nc(N)ccc1-c1cccc2ccc(C(=O)N(C)C)nc12` (as salt: hydrochloride) [Example 140, 8-(6-amino-2-ethylpyridin-3-yl)-N,N-dimethylquinoline-2-carboxamide], the melting point was in the range of 103 to 113 °C.
The molecule `Cl.Nc1ccc(-c2cccc3cccnc23)c(CC2CCC2)n1` [Example 68, 6-(cyclobutylmethyl)-5-(quinolin-8-yl)pyridin-2-amine] registered a melting point of 120 to 180 °C. In data set [1], the IC50 was less than 100 nM.
In turn, `CCc1nc(N)ccc1-c1c(F)ccc2c1OCCCC2.Cl` [Example 179, 6-ethyl-5-(8-fluoro-2,3,4,5-tetrahydrobenzo[b]oxepin-9-yl)pyridin-2-amine] had a melting point of 47 to 65 °C. The molecule also returned an IC50 in data set [1] of less than 100 nM.
As for `CCCc1nc(N)ccc1-c1cccc2cccnc12.Cl` [Example 8, 6-Propyl-5-(8-quinolyl)pyridin-2-amine], the melting point was 80 to 120 °C. This molecule also yielded an IC50 in data set [1] of less than 100 nM.
On the same counts, the results for `CCc1nc(N)ccc1-c1cccc2ccc(C(=O)NC3CCOCC3)nc12.Cl` [Example 173, 8-(6-amino-2-ethylpyridin-3-yl)-N-(tetrahydro-2H-pyran-4-yl)quinoline-2-carboxamide] are 112 to 125 °C and less than 100 nM.
The molecule `CCc1nc(N)ccc1-c1c(F)ccc2cc(Br)cnc12` [Example 151, 5-(3-bromo-7-fluoroquinolin-8-yl)-6-ethylpyridin-2-amine] had an IC50 in data set [1] of less than 100 nM.
Same read-out and setting: for `CCc1nc(N)ccc1-c1cccc2ccoc12` [Example 79, 5-(benzofuran-7-yl)-6-ethylpyridin-2-amine] the value was 100 to 1000 nM; for `CCc1nc(N)ccc1-c1c(F)c(F)cc2cc(Cl)cnc12` [Example 149, 5-(3-chloro-6,7-difluoroquinolin-8-yl)-6-ethylpyridin-2-amine], less than 100 nM; for `CCc1nc(N)ccc1-c1cccc2ccc(C(=O)N(C)C)nc12` [Example 140, 8-(6-amino-2-ethylpyridin-3-yl)-N,N-dimethylquinoline-2-carboxamide], 100 to 1000 nM.
The same measure, in the same setting: the result for `CCc1nc(N)ccc1-c1cccc2ccc(OCCN3CCOCC3)nc12` [Example 130, 6-ethyl-5-(2-(2-morpholinoethoxy)quinolin-8-yl)pyridin-2-amine] reads 100 to 1000 nM; that for `Nc1ccc(-c2cccc3cccnc23)c(N)n1` [Example 31, 3-(8-quinolyl)pyridine-2,6-diamine], less than 100 nM.
`CCc1nc(N)ccc1-c1c(Cl)ccc2ccc(O)nc12` [Example 160, 8-(6-amino-2-ethylpyridin-3-yl)-7-chloroquinolin-2(1H)-one] displayed an IC50 in data set [1] of less than 100 nM.
Turning to `CCc1nc(N)ccc1-c1cccc2ccc(C(=O)NC3COC3)nc12` [Example 175, 8-(6-amino-2-ethylpyridin-3-yl)-N-(oxetan-3-yl)quinoline-2-carboxamide], the melting point lay in the range of 156 to 162 °C.
In data set [1], `CCc1nc(N)ccc1-c1c(F)cc(F)c2cc(Cl)cnc12` [Example 148, 5-(3-chloro-5,7-difluoroquinolin-8-yl)-6-ethylpyridin-2-amine] displayed an IC50 of less than 100 nM.
In turn, `CCc1nc(N)ccc1-c1c(Cl)ccc2cc(F)cnc12` [Example 144, 5-(7-chloro-3-fluoroquinolin-8-yl)-6-ethylpyridin-2-amine] showed an IC50 in data set [1] of less than 100 nM.
Consider `CCc1nc(N)ccc1-c1cccc2c1N(C)C(=O)CC2` [Example 157, 8-(6-amino-2-ethylpyridin-3-yl)-1-methyl-3,4-dihydroquinolin-2(1H)-one], for which the IC50 in data set [1] was greater than 1000 nM.
As for `CCc1nc(N)ccc1-c1cccc2ccc(-c3cccnc3)nc12` [Example 117, 6-ethyl-5-(2-(pyridin-3-yl)quinolin-8-yl)pyridin-2-amine], in data set [1], the IC50 is less than 100 nM.
Still for that read-out and setting: the result for `CCc1nc(N)ccc1-c1cccc2ccc(-c3cncnc3)nc12` [Example 124, 6-ethyl-5-(2-(pyrimidin-5-yl)quinolin-8-yl)pyridin-2-amine] reads less than 100 nM.
For the molecule `CCc1nc(N)ccc1-c1c(F)ccc2cc(Cl)cnc12` [Example 146, 5-(3-chloro-7-fluoroquinolin-8-yl)-6-ethylpyridin-2-amine], the IC50 in data set [1] was less than 100 nM.
Still for that read-out and setting: for `Nc1ccc(-c2c(F)cc(F)c3cccnc23)c(N)n1` [Example 59, 3-(5,7-difluoroquinolin-8-yl)pyridine-2,6-diamine] the value was less than 100 nM; for `CCc1nc(N)ccc1-c1cccc2sccc12` [Example 78, 5-(benzo[b]thiophen-4-yl)-6-ethylpyridin-2-amine], 100 to 1000 nM; for `CCc1nc(N)ccc1-c1c(Cl)ccc2cc(Cl)cnc12` [Example 147, 5-(3,7-dichloroquinolin-8-yl)-6-ethylpyridin-2-amine], less than 100 nM.
The same measure, in the same setting: for `CCc1nc(N)ccc1-c1c(C#N)ccc2cccnc12` [Example 153, 8-(6-amino-2-ethylpyridin-3-yl)quinoline-7-carbonitrile] the value was 100 to 1000 nM.
In turn, `CCc1nc(N)ccc1-c1c(F)ccc2ccc(N(CC)C3CCCCC3)nc12.Cl` displayed a melting point of 160 to 210 °C.
Take `Nc1ccc(-c2c(F)ccc3cc(Cl)cnc23)c(N)n1` [Example 60, 3-(3-chloro-7-fluoroquinolin-8-yl)pyridine-2,6-diamine]: the IC50 in data set [1] is less than 100 nM.
`Nc1ccc(-c2c(Cl)ccc3ccc(O)nc23)c(N)n1` [Example 63, 8-(2,6-diaminopyridin-3-yl)-7-chloroquinolin-2-ol]: the IC50 in data set [1] is less than 100 nM.
For the molecule `CCc1nc(N)ccc1-c1c(Cl)ccc2cccnc12` [Example 110, 5-(7-chloroquinolin-8-yl)-6-ethylpyridin-2-amine], the concentration for half-maximal inhibition (IC50) in data set [1] was less than 100 nM.
